This note sets out measurements from ChEMBL document CHEMBL1201862, “PubChem BioAssay data set” (2004).

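Five concentrations, 48 hours, 96-well plates. GI50 = concentration required for 50% inhibition of growth.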 The source made the active and inactive calls. No stated cut-off is given here; in the data, active = GI50 up to about 1.1 µM and inactive = higher.

Experiment in all cases: NCI tumour cell line growth inhibition, 48 h
In test [1] the test system is K562.
For test [2], the system named is CAKI-1.
Test [3] has as its system SNB-75.
For test [4], the system named is Hs-578T.
The subject of test [5] is UO-31.
Test [6] has as its system RXF 393.
Test [7] has as its system Malme-3M.
The subject of test [8] is ACHN.
In test [9] the test system is MDA-MB-231.
In test [10] the test system is HOP-62.
Test [11] has as its system NCI-H522.
Test [12] concerns OVCAR-8.
Test [13] has as its system KM12.
The test system of test [14] is SK-MEL-5.
The subject of test [15] is OVCAR-4.
The test system of test [16] is A498.
In test [17] the test system is IGROV-1.
The subject of test [18] is SF-295.
Test [19] has as its system SK-MEL-28.
Test [20] has as its system T47D.

For the molecule `COc1cc(-c2oc3c(OC)c(O)cc(O)c3c(=O)c2OC)ccc1O`, the GI50 in test [1] is 5.12 µM (inactive); in test [2], 3.13 µM (inactive); in test [3], 4.02 µM (inactive); in test [4] it was 1.84 µM (inactive); in [5] it was 3.08 µM (inactive); in test [6], 3.73 µM (inactive). In addition, the GI50 in [7] was > 47.8 µM (inactive); in test [8], 3.99 µM (inactive); in [9], 7.76 µM (inactive); in [10], 3 µM (inactive); in [11], 8.17 µM (inactive); in test [12], 8.17 µM (inactive). For the same molecule, the GI50 was 10 µM (inactive) in [13]; 6.31 µM (inactive) in test [14]; 8.41 µM (inactive) in test [15]; 4.2 µM (inactive) in test [16]; 3.09 µM (inactive) in [17]; 17.5 µM (inactive) in test [18]. Also, the GI50 in [19] was 12.9 µM (inactive); in test [20], 2.38 µM (inactive).
As for `Cc1c(-c2ccccc2)c(C#N)c2nnn(-c3ccc(Cl)cc3)c(=O)n12`, the GI50 was 0.668 µM (active) in [1]; 13.3 µM (inactive) in test [2]; 30.9 µM (inactive) in test [3]; 71.4 µM (inactive) in test [4]; 22.5 µM (inactive) in test [5]; 28.2 µM (inactive) in test [6]. Further, the GI50 in test [7] was 81.3 µM (inactive); in test [8] it was 4.26 µM (inactive); in [9], 36.3 µM (inactive); in test [10] it was 7.14 µM (inactive); in test [11] it was 10.9 µM (inactive); in test [12], 25.3 µM (inactive). Also, the GI50 in [13] was 24.2 µM (inactive); in test [14], 1.14 µM (inactive); in test [15], 25.8 µM (inactive); in test [16], 68.7 µM (inactive); in test [17], 32.7 µM (inactive); in test [18] it was 7.06 µM (inactive). In addition, the GI50 in test [19] was > 100 µM (inactive); in test [20], 6.14 µM (inactive).
In the case of `CC(C)(C)[Si](C)(C)OCC1CCC(n2cnc3c(NC(=O)c4ccccc4)ncnc32)O1` (stereo not given), the GI50 in test [1] is 18.7 µM (inactive); in test [2], 21.4 µM (inactive); in test [3], 10.4 µM (inactive); in test [4], 14 µM (inactive); in [5], 1.54 µM (inactive); in test [6], 22 µM (inactive). The GI50 was 19.9 µM (inactive) in test [7]; 19.2 µM (inactive) in [8]; 20.7 µM (inactive) in [9]; 22 µM (inactive) in [10]; 16.4 µM (inactive) in test [11]; 28.5 µM (inactive) in test [12]. The GI50 is 17.3 µM (inactive) in test [13]; 11.5 µM (inactive) in [14]; 21.8 µM (inactive) in test [15]; 21.1 µM (inactive) in [16]; 18.1 µM (inactive) in [17]; 18.2 µM (inactive) in [18]. For the same molecule, the GI50 in test [19] was 14.3 µM (inactive); in test [20], 26.4 µM (inactive).
Turning to `CCCCCCCCCCCCCCCCCCNc1nc(=O)n(C2CC(O)C(COP(=O)(O)O)O2)cc1F` (stereo not given), the GI50 in test [1] was > 100 µM (inactive); in test [2], 15 µM (inactive); in test [3], > 100 µM (inactive); in test [4], > 100 µM (inactive); in [5], 31.7 µM (inactive); in test [6], > 80 µM (inactive). The GI50 in [7] was > 100 µM (inactive); in test [8] it was 10.8 µM (inactive); in [9] it was > 100 µM (inactive); in test [10], 81.7 µM (inactive); in [11], > 100 µM (inactive); in test [12], 27.4 µM (inactive). Also, the GI50 in test [13] was > 72.8 µM (inactive); in test [14], > 100 µM (inactive); in test [15] it was > 100 µM (inactive); in [16], 6.27 µM (inactive); in [17], > 74.8 µM (inactive); in test [18] it was > 80.7 µM (inactive). Also, the GI50 in [19] is > 100 µM (inactive); in test [20], 42.9 µM (inactive).
In the case of `CC(=O)NC1C(OCc2ccccc2)OC(CO)C(O)C1OCC(=O)N1CCCC1C(=O)N[C@@H](CCC(=O)NCCNCCNc1c2ccccc2nc2cccc([N+](=O)[O-])c12)C(N)=O` (stereo not given in full), the GI50 was 0.655 µM (active) in test [1]; 1.94 µM (inactive) in [2]; 6.64 µM (inactive) in [3]; 3.89 µM (inactive) in [4]; 3.75 µM (inactive) in [5]; 2.17 µM (inactive) in test [6]. The GI50 was 2.57 µM (inactive) in test [7]; 2.11 µM (inactive) in test [8]; 2.5 µM (inactive) in test [9]; 2.54 µM (inactive) in [10]; 1.45 µM (inactive) in test [11]; 2.19 µM (inactive) in test [12]. For the same molecule, the GI50 in test [13] is 3.46 µM (inactive); in test [14], 1.48 µM (inactive); in test [15], 3.91 µM (inactive); in test [16], 1.04 µM (active); in test [17], 2.56 µM (inactive); in [18] it was 5.33 µM (inactive). Besides, the GI50 in [19] is 6.68 µM (inactive); in test [20], 5.78 µM (inactive).
Regarding `O=[N+]([O-])c1cccc2nc3ccccc3c(NCCCN3CCCCC3)c12`, the GI50 was < 0.0123 µM (active) in test [1]; 0.0312 µM (active) in test [2]; 0.0205 µM (active) in test [3]; 0.0385 µM (active) in [4]; 0.0237 µM (active) in [5]; 0.0101 µM (active) in [6]. Besides, the GI50 in [7] is 0.0164 µM (active); in [8], 0.0139 µM (active); in test [9] it was 0.016 µM (active); in test [10], 0.0125 µM (active); in test [11], < 0.01 µM (active); in [12] it was 0.0132 µM (active). Further, the GI50 in test [13] was 0.014 µM (active); in [14], < 0.011 µM (active); in test [15], < 0.01 µM (active); in [16], < 0.0115 µM (active); in test [17], < 0.0104 µM (active); in [18], 0.0146 µM (active). Besides, the GI50 is 0.0417 µM (active) in test [19] and 0.0179 µM (active) in test [20].
As to `COc1cc2c(NCCN(C)C)nc3c4cc5c(cc4ccc3c2cc1OC)OCO5`, the GI50 in test [1] was 3.23 µM (inactive); in test [2], 2.73 µM (inactive); in [3], 2.18 µM (inactive); in test [4] it was 5.21 µM (inactive); in test [5], 3.36 µM (inactive); in test [6], 3.16 µM (inactive). Further, the GI50 in test [7] is 4.14 µM (inactive); in test [8], 0.745 µM (active); in test [9], 5.13 µM (inactive); in [10], 3.54 µM (inactive); in test [11] it was 3.9 µM (inactive); in [12], 3.13 µM (inactive). Further, the GI50 in test [13] was 4.18 µM (inactive); in test [14] it was 2.84 µM (inactive); in test [15], 3.96 µM (inactive); in test [16], 2.76 µM (inactive); in test [17] it was 2.8 µM (inactive); in test [18] it was 2.58 µM (inactive). The GI50 was 4.93 µM (inactive) in test [19] and 6.15 µM (inactive) in [20].
`CCC/C(C)=N/NC(=S)SC.CCC/C(C)=N/NC(=S)SC.[Zn+2]`: the GI50 in [1] was 16.6 µM (inactive); in test [2], 13.7 µM (inactive); in test [3], 18.7 µM (inactive); in test [4] it was 15.7 µM (inactive); in test [5], 11 µM (inactive); in test [6] it was 17.1 µM (inactive). Further, the GI50 in test [7] was 2.9 µM (inactive); in test [8] it was 9.08 µM (inactive); in [9] it was 1.7 µM (inactive); in test [10] it was 9.75 µM (inactive); in test [11], 11.3 µM (inactive); in test [12], 1.89 µM (inactive). Moreover, the GI50 in test [13] is 11.5 µM (inactive); in test [14], 11.2 µM (inactive); in test [15], 14.1 µM (inactive); in [16] it was 22.2 µM (inactive); in test [17], 2.56 µM (inactive); in test [18] it was 3.15 µM (inactive). Also, the GI50 in [19] was 16 µM (inactive); in test [20], 11.5 µM (inactive).
As for `O=C(CSc1nnc(-c2ccccn2)s1)N/N=C/c1ccc([N+](=O)[O-])cc1`, the GI50 was > 100 µM (inactive) in test [1]; > 100 µM (inactive) in [2]; 2.86 µM (inactive) in test [3]; 32.1 µM (inactive) in test [4]; < 0.01 µM (active) in test [5]; 12.1 µM (inactive) in test [6]. The GI50 is > 100 µM (inactive) in test [7]; 53.8 µM (inactive) in test [8]; 15.9 µM (inactive) in [9]; 35.6 µM (inactive) in [10]; > 100 µM (inactive) in [11]; 41.8 µM (inactive) in test [12]. Moreover, the GI50 in test [13] was > 100 µM (inactive); in test [14], > 100 µM (inactive); in [15], > 100 µM (inactive); in test [16], 31 µM (inactive); in test [17], 20.9 µM (inactive); in [18] it was 29.4 µM (inactive). For the same molecule, the GI50 in test [19] was > 100 µM (inactive); in test [20], 37.1 µM (inactive).
With `O=c1c2cc([N+](=O)[O-])ccc2n2n1CCCC2`, the GI50 is > 100 µM (inactive) in test [1]; > 100 µM (inactive) in test [2]; > 100 µM (inactive) in test [3]; > 100 µM (inactive) in test [4]; 71.3 µM (inactive) in test [5]; > 100 µM (inactive) in test [6]. For the same molecule, the GI50 in [7], in test [8], in test [9], in test [10], in test [11] and in test [12] was > 100 µM (inactive) throughout. Also, the GI50 in test [13], in test [14], in [15], in test [16], in test [17] and in test [18] was > 100 µM (inactive) in each case. Moreover, the GI50 in test [19] and in test [20] was > 100 µM (inactive) each time.
